Experimental data published in patent publication US4460596A, “Thienyloxazolylacetic acid derivatives and process for preparing” (Tanabe Seiyaku Co., Ltd., priority 1981, dated 1984).

What was measured:
[1] = test system: serum cholesterol and serum triglyceride; experiment: Hypolipidemic activity in rats (serum cholesterol and triglyceride, one-week diet); format: in vivo; details: male SD rats, 50 mg % in diet
Protocol: (§1) A test compound (50 mg %) was added to a commercial diet, and male SD rats (body weight: 120-140 g, a group of 5 rats) were fed with the diet ad libitum for one week. After the experimental period, blood was collected from the tail vein of the rats under ether anesthesia. Serum cholesterol and serum triglyceride were measured according to the methods of Zak (Amer. J. Clin. Pathol., Vol. 24, page 1307(1954)) and Van Handel-Zilversmit (J. Lab. & Clin. Med., Vol. 55, page 152(1957)), respectively. Then, the increase (%) in liver weight and the decrease (%) in serum cholesterol or triglyceride were calculated according to the following formulae: [formula]

blood platelets (PRP) = experiment: Platelet aggregation-inhibiting activity in vitro (collagen, rat platelet-rich plasma); format: cell-based, male SD rats; details: final concentration 100 μg/ml, 37° C.
Protocol: (Platelet aggregation-inhibiting activity)
Blood was collected from the abdominal aorta of male SD rats (body weight: 250-300 g) which were anesthetized with ether. Nine volumes of said blood were mixed with one volume of an aqueous 3.8% (w/v) trisodium citrate solution, and the mixture was centrifuged at 500×g for 5 minutes to give platelet-rich plasma (hereinafter referred to as "PRP") as the supernatant solution. The bottom layer was further centrifuged at 1000×g for 10 minutes to give platelet-poor plasma (hereinafter referred to as "PPP") as the supernatant solution. PRP was diluted with PPP so that the blood platelet count was 8-10×10^5 /mm^3. Then, a mixture of 200 μl of said diluted PRP and 25 μl of a test compound solution (final concentration: 100 μg/ml) was introduced into a glass cell of SIENCO aggregometer (Sienco Inc., Morrison, Colo. Model DP-247-D). After the mixture was stirred at 1100 rpm at 37° C. for 2 minutes, 25 μl of a collagen solution (prepared by Holmsen's method described in Biochim. Biophys. Acta, Vol. 186, page 254(1969)) was added thereto, and the percentage inhibition of platelet aggregation was calculated in accordance with the following formula from the degree of the platelet aggregation which was estimated by Born's method (Nature, 194, page 927([…])). [formula]

platelet aggregation = experiment: Platelet aggregation-inhibiting activity after oral administration (ex vivo); format: in vivo; details: 100 mg/kg, one hour after administration, male SD rats, collagen
[2] = Increase in liver weight in rats (one-week diet); format: in vivo; details: male SD rats, 50 mg % in diet
Protocol: as §1

Compound	Decrease (%) in serum cholesterol [1]	Decrease (%) in serum triglyceride [1]	inhibition at 100 µg/mL (blood platelets (PRP))	Percentage inhibition of platelet aggregation (platelet aggregation)	increase (%) in liver weight [2]
O=C(O)Cc1nc(-c2ccc(Cl)cc2)oc1-c1ccsc1 [2-[2-(4-chlorophenyl)-5-(3-thienyl)-4-oxazolyl]acetic acid]	18%	49%	≥ 10%	–	–
O=C(O)Cc1nc(-c2ccc(F)cc2)oc1-c1cccs1 [2-[2-(4-fluorophenyl)-5-(2-thienyl)-4-oxazolyl]acetic acid]	17%	27%	≥ 10%	–	–
O=C(O)Cc1nc(-c2ccc(F)cc2)oc1-c1ccsc1 [2-[2-(4-fluorophenyl)-5-(3-thienyl)-4-oxazolyl]acetic acid]	23%	39%	≥ 10%	93 ± 6%	–
CCOC(=O)C(C)(C)Oc1ccc(Cl)cc1 [Clofibrate, 2-(4-chlorophenoxy)-2-methylpropanoic acid ethyl ester, reference compound]	15%	16%	< 10%	–	12%
CCOC(=O)Cc1nc(-c2ccc(F)cc2)oc1-c1cccs1 [ethyl 2-[2-(4-fluorophenyl)-5-(2-thienyl)-4-oxazolyl]acetate]	17%	43%	≥ 10%	–	–
CCOC(=O)Cc1nc(-c2ccc(F)cc2)oc1-c1ccsc1 [ethyl 2-[2-(4-fluorophenyl)-5-(3-thienyl)-4-oxazolyl]acetate]	19%	31%	≥ 10%	–	–
CCCCCOC(=O)Cc1nc(-c2ccc(Cl)cc2)oc1-c1ccsc1 [n-pentyl 2-[2-(4-chlorophenyl)-5-(3-thienyl)-4-oxazolyl]acetate]	19%	45%	–	–	–
CCCCCOC(=O)Cc1nc(-c2ccccc2)oc1-c1ccsc1 [n-pentyl 2-[2-phenyl-5-(3-thienyl)-4-oxazolyl]acetate]	20%	30%	≥ 10%	–	–
